Earlier results as cited in patent US5580957A, “GnRH analogs” (The Salk Institute for Biological Studies, priority 1994, dated 1996).

Experiments:
GnRH = conditions: background statement
receptor (GnRH) = target: T1, receptor (GnRH) (Homo sapiens, UniProt P30968); conditions: background statement
T1 sequence (P30968 1-328): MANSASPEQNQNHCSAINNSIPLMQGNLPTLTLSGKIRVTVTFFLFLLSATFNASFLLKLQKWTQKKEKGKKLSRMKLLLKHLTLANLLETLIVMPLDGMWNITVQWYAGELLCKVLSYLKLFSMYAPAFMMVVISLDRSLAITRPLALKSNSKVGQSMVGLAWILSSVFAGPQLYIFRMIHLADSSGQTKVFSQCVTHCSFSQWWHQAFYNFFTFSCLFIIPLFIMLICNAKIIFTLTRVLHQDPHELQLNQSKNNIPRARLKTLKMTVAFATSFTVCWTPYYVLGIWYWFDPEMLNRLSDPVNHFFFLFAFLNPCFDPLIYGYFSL

Substance: pGlu-His-Trp-Ser-Tyr-D-Ala-Leu-Arg-Pro-Gly-NH2 [[D-Ala^6]-GnRH]
- biological potency versus native hormone (GnRH): greater biological potency than the native hormone
- binding strength to the receptor versus native hormone (receptor (GnRH)): greater binding strength
